Assay results as given in US11504371B2, “Quinazolines compound, preparation method therefor and application thereof” (Beijing Normal University, priority 2017, dated 2022).
“Also recorded” adds a separate entry of the source. Where two headings read alike, the source gives them in different places.

Tests used:
[1] = test system: human lung cancer cell line (A549); experiment: MTT assay, tumor cell proliferation inhibition, A549; type: cell-based; settings: A549, MTT, 72 h, read-out: Tumor inhibition rate (IC50)
Protocol: (§1) Cell lines to be tested: human hepatoma cell line (HepG2), human lung cancer cell line (A549), human prostate cancer cell line (DU145), human breast cancer cell line (MCF-7), human neuroblastoma cell line (SH-SY5Y), human gastric mucosal cell line (Ges-1) and human embryonic lung fibroblast cell line (CCC-HPF-1) (the cells to be tested were purchased from the Cancer Hospital of Chinese Academy of Medical Sciences).
(§2) The cells in logarithmic growth phase were treated to prepare a single cell suspension, with the cell density adjusted, which was seeded in a 96-well cell culture plate. About 2×10^3 cells were contained in 100 μL per well, and cultured in a cell incubator at 37° C., 5% CO2, and saturated humidity for 24 h. The used medium was aspirated and abandoned, and then 100 μL of the target compound in different concentrations (0.1 μM-100 μM) were added for drug treatment. Five duplicate wells were prepared for each concentration. The background blank well, negative control well and positive control well were also prepared. All the wells were placed in a cell culture incubator at 37° C., 5% CO2, saturated humidity for another 72 h. Then, each well was added with 10 μL of MTT solution (5 mg/mL) and incubated for another 4 h. After that, each well was added with 100 μL of 10% SDS-0.1% NH4Cl (10% SDS purchased from Beijing Mengyimei Biotechnology Co., Ltd.) solution, and incubated at 37° C. for 10 h in the dark. Then, the absorbance OD was measured at 570 nm using a microplate reader at a reference wavelength of 650 nm. Cell proliferation inhibition was calculated according to the following formula: % inhibition=(ODcontrol−ODtreat)(ODcontrol−ODblank)×100. […] Each group was performed at least three times in parallel.

[2] = test system: human neuroblastoma cell line (SH-SY5Y); experiment: MTT assay, tumor cell proliferation inhibition, SH-SY5Y; type: cell-based; settings: SH-SY5Y, 72 h, read-out: Tumor inhibition rate (IC50)
Protocol: as §1, §2

[3] = test system: human breast cancer cell line (MCF-7); experiment: MTT assay, tumor cell proliferation inhibition, MCF-7; type: cell-based; settings: MCF-7, MTT, 72 h, read-out: Tumor inhibition rate (IC50)
Protocol: as §1, §2

[4] = test system: human prostate cancer cell line (DU145); experiment: MTT assay, tumor cell proliferation inhibition, DU145; type: cell-based; settings: DU145, MTT, 72 h, read-out: Tumor inhibition rate (IC50)
Protocol: as §1, §2

[5] = test system: tumor cell strains HepG2, A549, MCF-7, DU145 and SH-SY5Y; experiment: MTT assay, summary over the five tumor cell lines; type: cell-based, human; settings: HepG2, A549, MCF-7, DU145, SH-SY5Y
Protocol: as §1
The cells in logarithmic growth phase were treated to prepare a single cell suspension, with the cell density adjusted, which was seeded in a 96-well cell culture plate. About 2×10^3 cells were contained in 100 μL per well, and cultured in a cell incubator at 37° C., 5% CO2, and saturated humidity for 24 h. The used medium was aspirated and abandoned, and then 100 μL of the target compound in different concentrations (0.1 μM-100 μM) were added for drug treatment. Five duplicate wells were prepared for each concentration. The background blank well, negative control well and positive control well were also prepared. All the wells were placed in a cell culture incubator at 37° C., 5% CO2, saturated humidity for another 72 h. Then, each well was added with 10 μL of MTT solution (5 mg/mL) and incubated for another 4 h. After that, each well was added with 100 μL of 10% SDS-0.1% NH4Cl (10% SDS purchased from Beijing Mengyimei Biotechnology Co., Ltd.) solution, and incubated at 37° C. for 10 h in the dark. Then, the absorbance OD was measured at 570 nm using a microplate reader at a reference wavelength of 650 nm. Cell proliferation inhibition was calculated according to the following formula: % inhibition=(ODcontrol−ODtreat)(ODcontrol−ODblank)×100. IC50 value, i.e., 50% proliferation inhibition concentration, was calculated by SPSS 16.0 software. Each group was performed at least three times in parallel.
The inhibitory activities of 35 target compounds against tumor cell strains HepG2, A549, MCF-7, DU145 and SH-SY5Y were tested by MTT assay (Table 1). Some compounds with optimal antitumor activity were selected.

[6] = test system: human hepatoma cell line (HepG2); experiment: MTT assay, tumor cell proliferation inhibition, HepG2; type: cell-based; settings: 72 h, read-out: Tumor inhibition rate (IC50)
Protocol: as §1, §2

[7] = test system: HepG2 cancer cells; experiment: Nude mice bearing HepG2 cancer cells
Protocol: Firstly, a tumor-bearing nude mouse model was established. […] Then, grouping and administration were performed; the nude mice (5 mice in each group) were randomly divided into several groups, such as ultra-pure water control group (blank), positive drug control group, and different dosage treatment groups. The nude mice in each group were administered continuously for 40 days. The nude mice were weighted every other day during the administration. Tumor volumes were measured and calculated.

Row | IC50 ([1]; Homo sapiens) [µM] | melting point [°C] | IC50 ([2]; Homo sapiens) [µM] | IC50 ([3]; Homo sapiens, MCF7) [µM] | IC50 ([4]; Homo sapiens, DU-145) [µM] | IC50 ([6]; Homo sapiens) [µM] | IC50 [1] [µM] | IC50 [2] [µM] | IC50 [3] [µM] | IC50 [4] [µM] | IC50 [6] [µM] | weight loss of nude mice (FIG. 6) ([7]; 40 mg/Kg, single agent) | SMILES | inhibitory effect on proliferation of the five tumor cells (in words) [5] | body weight of the mice (FIG. 6) ([7]; 20 mg/Kg, single agent) | tumor growth (tumor volume, FIG. 5) ([7]; nude mice bearing HepG2, single agent)
1 | 19.8 | 136 to 137 | 8.42 | 6.41 | 13.8 | 9.82 |  |  |  |  |  |  | O=[N+]([O-])c1ccc(COc2cccc(Nc3ncnc4cc5c(cc34)OCCOCCOCCOCCO5)c2)cc1 [Compound 31, N-(3-((4-nitrophenyl)methoxy)phenyl)-6,7-(benzo-15-crown-5)-4-quinazolinamine] | good inhibitory effect on proliferation of at least three of the five tumor cells |  | 
2 |  |  |  |  |  |  | 8.52 | 8.56 | 8.48 | 26.9 | 5.7 |  | FC(F)(F)c1ccc(COc2cccc(Nc3ncnc4cc5c(cc34)OCCOCCOCCOCCO5)c2)cc1 [Compound 34, N-(3-((4-trifluoromethylphenyl)methoxy)phenyl)-6,7-(benzo-15-crown-5)-4-quinazolinamine] | good inhibitory effect on proliferation of at least three of the five tumor cells |  | 
3 | 8.56 | 197 to 198 | 2.14 | 10 | 8.8 | 3.34 |  |  |  |  |  | weight loss of nude mice is similar | FC(F)(F)c1ccc(COc2ccc(Nc3ncnc4cc5c(cc34)OCCOCCOCCOCCO5)cc2)cc1 [Compound 35, N-(4-((4-trifluoromethylphenyl)methoxy)phenyl)-6,7-(benzo-15-crown-5)-4-quinazolinamine] | good inhibitory effect on proliferation of at least three of the five tumor cells; also recorded: high anticancer activity on all the five tumor cells | significantly increased | can slow down the tumor growth with increasing drug dose
